Measurements as given in the NIST ThermoML archive (doi:10.1016/j.tca.2015.02.014).

Test: mn = molality of the nth substance listed, in mol/kg
Conditions: 100 kPa, Liquid; for viscosity: Capillary tube (Ostwald / Ubbelohde) method; for speed of sound: Frequency=3 MHz, Sing-around technique in a fixed-path interferometer; for mass density: Vibrating tube method

C[C@H](CCC(=O)[O-])[C@H]1CC[C@H]2[C@@H]3[C@H](O)C[C@@H]4C[C@H](O)CC[C@]4(C)[C@H]3C[C@H](O)[C@]12C.[Na+] [sodium cholate] + O
Conditions | mass density [kg/m3] | speed of sound [m/s] | viscosity [mPa·s]
293.15 K, m1 = 0.001 | 998.33 | 1483 | 1.003
293.15 K, m1 = 0.002 | 998.422 | 1483.3 | 1.004
293.15 K, m1 = 0.003 | 998.533 | 1483.6 | 1.005
293.15 K, m1 = 0.004 | 998.618 | 1483.8 | 1.007
293.15 K, m1 = 0.006 | 998.805 | 1484.4 | 1.011
293.15 K, m1 = 0.008 | 999.003 | 1485 | 1.016
293.15 K, m1 = 0.01 | 999.241 | 1485.8 | 1.021
293.15 K, m1 = 0.014 | 999.685 | 1486.9 | 1.033
293.15 K, m1 = 0.018 | 1000.14 | 1487.9 | 1.041
293.15 K, m1 = 0.022 | 1000.59 | 1488.8 | 1.048
293.15 K, m1 = 0.026 | 1001 | 1489.7 | 1.056
293.15 K, m1 = 0.03 | 1001.44 | 1490.2 | 1.063
298.15 K, m1 = 0.001 | 997.158 | 1497 | 0.8906
298.15 K, m1 = 0.002 | 997.267 | 1497.3 | 0.8925
298.15 K, m1 = 0.003 | 997.369 | 1497.6 | 0.8939
298.15 K, m1 = 0.004 | 997.455 | 1497.9 | 0.8955
298.15 K, m1 = 0.006 | 997.635 | 1498.4 | 0.8987
298.15 K, m1 = 0.008 | 997.835 | 1499.1 | 0.902
298.15 K, m1 = 0.01 | 998.035 | 1499.7 | 0.9055
298.15 K, m1 = 0.014 | 998.454 | 1500.8 | 0.9168
298.15 K, m1 = 0.018 | 998.905 | 1501.7 | 0.9239
298.15 K, m1 = 0.022 | 999.354 | 1502.6 | 0.9315
298.15 K, m1 = 0.026 | 999.746 | 1503.4 | 0.9373
298.15 K, m1 = 0.03 | 1000.14 | 1504 | 0.9429
303.15 K, m1 = 0.001 | 995.785 | 1509.5 | 0.798
303.15 K, m1 = 0.002 | 995.901 | 1509.8 | 0.7991
303.15 K, m1 = 0.003 | 996.001 | 1510 | 0.7999
303.15 K, m1 = 0.004 | 996.102 | 1510.2 | 0.8022
303.15 K, m1 = 0.006 | 996.301 | 1510.7 | 0.8047
303.15 K, m1 = 0.008 | 996.513 | 1511.3 | 0.8075
303.15 K, m1 = 0.01 | 996.724 | 1511.8 | 0.8105
303.15 K, m1 = 0.014 | 997.167 | 1512.8 | 0.8215
303.15 K, m1 = 0.018 | 997.524 | 1513.8 | 0.8281
303.15 K, m1 = 0.022 | 997.945 | 1514.6 | 0.8321
303.15 K, m1 = 0.026 | 998.31 | 1515.4 | 0.838
303.15 K, m1 = 0.03 | 998.815 | 1516.1 | 0.8429
308.15 K, m1 = 0.001 | 994.145 | 1520.2 | 0.7202
308.15 K, m1 = 0.002 | 994.255 | 1520.5 | 0.7212
308.15 K, m1 = 0.003 | 994.348 | 1520.7 | 0.7225
308.15 K, m1 = 0.004 | 994.455 | 1520.9 | 0.7241
308.15 K, m1 = 0.006 | 994.7 | 1521.4 | 0.7265
308.15 K, m1 = 0.008 | 994.885 | 1522 | 0.7295
308.15 K, m1 = 0.01 | 995.101 | 1522.4 | 0.7323
308.15 K, m1 = 0.014 | 995.521 | 1523.4 | 0.7415
308.15 K, m1 = 0.018 | 995.957 | 1524.2 | 0.7461
308.15 K, m1 = 0.022 | 996.357 | 1525 | 0.7509
308.15 K, m1 = 0.026 | 996.744 | 1525.8 | 0.7561
308.15 K, m1 = 0.03 | 997.176 | 1526.4 | 0.7619
313.15 K, m1 = 0.001 | 992.351 | 1529.3 | 0.6535
313.15 K, m1 = 0.002 | 992.449 | 1529.6 | 0.6544
313.15 K, m1 = 0.003 | 992.547 | 1529.8 | 0.6556
313.15 K, m1 = 0.004 | 992.655 | 1530 | 0.6571
313.15 K, m1 = 0.006 | 992.873 | 1530.4 | 0.6595
313.15 K, m1 = 0.008 | 993.087 | 1530.9 | 0.662
313.15 K, m1 = 0.01 | 993.304 | 1531.3 | 0.6648
313.15 K, m1 = 0.014 | 993.711 | 1532.3 | 0.6722
313.15 K, m1 = 0.018 | 994.126 | 1533.1 | 0.6772
313.15 K, m1 = 0.022 | 994.505 | 1533.9 | 0.6813
313.15 K, m1 = 0.026 | 994.935 | 1534.6 | 0.6865
313.15 K, m1 = 0.03 | 995.354 | 1535.2 | 0.6918
318.15 K, m1 = 0.001 | 990.351 | 1536.9 | 0.5973
318.15 K, m1 = 0.002 | 990.445 | 1537.2 | 0.5985
318.15 K, m1 = 0.003 | 990.539 | 1537.3 | 0.5997
318.15 K, m1 = 0.004 | 990.629 | 1537.5 | 0.6013
318.15 K, m1 = 0.006 | 990.864 | 1537.9 | 0.6035
318.15 K, m1 = 0.008 | 991.051 | 1538.3 | 0.6062
318.15 K, m1 = 0.01 | 991.257 | 1538.7 | 0.609
318.15 K, m1 = 0.014 | 991.671 | 1539.5 | 0.6161
318.15 K, m1 = 0.018 | 992.088 | 1540.4 | 0.6201
318.15 K, m1 = 0.022 | 992.491 | 1541.2 | 0.6245
318.15 K, m1 = 0.026 | 992.905 | 1541.9 | 0.6291
318.15 K, m1 = 0.03 | 993.313 | 1542.5 | 0.6328
